According to ChEMBL document CHEMBL4414611, “Hypascyrins A-E, Prenylated Acylphloroglucinols from Hypericum ascyron” (2019):
≈ marks a conversion by molar mass, not a printed value.

Experiments:
Assay type in all cases: functional
Escherichia coli = assay: Antibacterial activity against Escherichia coli assessed as reduction in bacterial growth incubated for 20 hrs by broth microdilution assay
Staphylococcus aureus [1] = assay: Antibacterial activity against methicillin resistant Staphylococcus aureus assessed as reduction in bacterial growth incubated for 20 hrs by broth microdilution assay
Staphylococcus aureus [2] = assay: Antibacterial activity against methicillin susceptible Staphylococcus aureus assessed as reduction in bacterial growth incubated for 20 hrs by broth microdilution assay
Bacillus subtilis = assay: Antibacterial activity against Bacillus subtilis assessed as reduction in bacterial growth incubated for 20 hrs by broth microdilution assay

Row | SMILES | MIC50 (Escherichia coli) [µM] | MIC50 (Staphylococcus aureus [1]) [µM] | MIC (Staphylococcus aureus [2]) [µM] | MIC50 (Staphylococcus aureus [2]) [µM] | MIC (Bacillus subtilis) [µM] | MIC (Staphylococcus aureus [1]) [µM]
1 | CCC(C)C(=O)C1=C(O)C([C@@H]2C=C(C(C)C)CC[C@]2(C)O)=C(O)C(CC=C(C)C)(CC=C(C)C)C1=O (stereo partly specified) | > 64 | 8 (≈ 3.99 µg/mL) | 4 to 8 (≈ 1.99 to 3.99 µg/mL) | 8 (≈ 3.99 µg/mL) | 4 (≈ 1.99 µg/mL) | 
2 | CC(C)=CCC1(CC=C(C)C)C(=O)C(C(=O)CC(C)C)=C(O)C([C@@H]2C=C(C(C)C)CC[C@]2(C)O)=C1O | > 64 | 4 (≈ 1.99 µg/mL) | 4 (≈ 1.99 µg/mL) | 4 (≈ 1.99 µg/mL) | 4 (≈ 1.99 µg/mL) | 4 to 8 (≈ 1.99 to 3.99 µg/mL)
3 | C=C(C)[C@@H]1CC[C@](C)(O)[C@H](C2=C(O)C(CC=C(C)C)(CC=C(C)C)C(=O)C(C(=O)CC(C)C)=C2O)C1 | > 64 | 2 (≈ 0.997 µg/mL) | 1 to 2 (≈ 0.499 to 0.997 µg/mL) | 2 (≈ 0.997 µg/mL) | 2 (≈ 0.997 µg/mL) | 
